Source: patent US12077503B2, “Substituted cyclic amides and their use as herbicides” (FMC CORPORATION, priority 2015, dated 2024)

How the values were obtained:
Type in all cases: in vivo
Kochia (Kochia scoparia) [1] = assay: Test A preemergence; conditions: Bassia scoparia, pre-emergence, 240 h, 0 to 100 scale where 0 is no effect and 100 is complete control, read-out: Kochia plant response rating
Summary of the method: (§1)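 Preemergence soil spray on seeded pots or post-emergence spray on 1–2 leaf plants, in loam–sand blend. Greenhouse ~10 d. Visual rating 0–100 against untreated plants.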

[2] = test system: barnyardgrass (Echinochloa crus-galli); assay: Test A preemergence; conditions: Echinochloa crus-galli, pre-emergence, 240 h, 0 to 100 scale where 0 is no effect and 100 is complete control, read-out: Barnyardgrass plant response rating
Summary of the method: as §1

[3] = test system: giant foxtail (Setaria faberii); assay: Test A preemergence; conditions: Setaria faberi, pre-emergence, 240 h, 0 to 100 scale where 0 is no effect and 100 is complete control, read-out: Foxtail, Giant plant response rating
Summary of the method: as §1

[4] = test system: pigweed (Amaranthus retroflexus); assay: Test A preemergence; conditions: Amaranthus retroflexus, pre-emergence, 240 h, 0 to 100 scale where 0 is no effect and 100 is complete control, read-out: Pigweed plant response rating
[5] = test system: ragweed (common ragweed, Ambrosia elatior); assay: Test A preemergence; conditions: Ambrosia artemisiifolia, pre-emergence, 240 h, 0 to 100 scale where 0 is no effect and 100 is complete control, read-out: Ragweed plant response rating
Summary of the method: as §1

[6] = test system: ryegrass, Italian (Italian ryegrass, Lolium multiflorum); assay: Test A preemergence; conditions: Lolium multiflorum, pre-emergence, 240 h, 0 to 100 scale where 0 is no effect and 100 is complete control, read-out: Ryegrass, Italian plant response rating
Summary of the method: as §1

[7] = test system: Galium (catchweed bedstraw, Galium aparine); assay: Test A postemergence; conditions: Galium, post-emergence, 240 h
Summary of the method: as §1

Kochia (Kochia scoparia) [8] = assay: Test A postemergence; conditions: Bassia scoparia, post-emergence, 240 h
Summary of the method: as §1

[9] = test system: barnyardgrass (Echinochloa crus-galli); assay: Test A postemergence; conditions: Echinochloa crus-galli, post-emergence, 240 h
Summary of the method: as §1

[10] = test system: blackgrass (Alopecurus myosuroides); assay: Test A postemergence; conditions: Alopecurus myosuroides, post-emergence, 240 h
Summary of the method: as §1

corn (Zea mays) = assay: Test A postemergence; conditions: Zea mays, post-emergence, 240 h
Summary of the method: as §1

[11] = test system: giant foxtail (Setaria faberii); assay: Test A postemergence; conditions: Setaria faberi, post-emergence, 240 h
Summary of the method: as §1

[12] = test system: pigweed (Amaranthus retroflexus); assay: Test A postemergence; conditions: Amaranthus retroflexus, post-emergence, 240 h
Summary of the method: as §1

[13] = test system: ragweed (common ragweed, Ambrosia elatior); assay: Test A postemergence; conditions: Ambrosia artemisiifolia, post-emergence, 240 h
Summary of the method: as §1

[14] = test system: ryegrass, Italian (Italian ryegrass, Lolium multiflorum); assay: Test A postemergence; conditions: Lolium multiflorum, post-emergence, 240 h
Summary of the method: as §1

[15] = test system: wheat (Triticum aestivum); assay: Test A postemergence; conditions: Triticum aestivum, post-emergence, 240 h
Summary of the method: as §1

[16] = test system: barnyardgrass (Echinochloa crus-galli); assay: Test B flooded paddy test; conditions: Echinochloa crus-galli, 250 g ai/ha, Flood; 0 to 100 scale where 0 is no effect and 100 is complete control; read-out: Barnyardgrass plant response rating
Summary of the method: (§2)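 Percent control, visually estimated after 13–15 d in the greenhouse on a 0–100 basis, compares treated pots with untreated ones; compound was put into paddy water 3 cm above the soil when plants had two leaves.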

[17] = test system: ducksalad (Heteranthera limosa); assay: Test B flooded paddy test; conditions: Heteranthera limosa, 250 g ai/ha, Flood; 0 to 100 scale where 0 is no effect and 100 is complete control; read-out: Ducksalad plant response rating
Summary of the method: as §2

rice (Oryra sativa) = assay: Test B flooded paddy test; conditions: Oryza sativa, 250 g ai/ha, Flood; 0 to 100 scale where 0 is no effect and 100 is complete control; read-out: Rice plant response rating
Summary of the method: as §2

[18] = test system: sedge, umbrella (small-flower umbrella sedge, Cyperus difformis); assay: Test B flooded paddy test; conditions: Cyperus difformis, 250 g ai/ha, Flood; 0 to 100 scale where 0 is no effect and 100 is complete control; read-out: Sedge, Umbrella plant response rating
Summary of the method: as §2

[19] = 125 g ai/ha, preemergence, approx. 10 d

## C=C(C)c1cccc([C@H]2CN(C)C(=O)[C@@H]2C(=O)Nc2cccc(F)c2C)c1 [Compound 1086]
Kochia (Kochia scoparia) [1]; 31 g ai/ha, Preemergence
  pest or weed control at 31 g/ha: 0%
Kochia (Kochia scoparia) [1]; [19]
  pest or weed control at 125 g/ha: 0%
[2]; 31 g ai/ha, Preemergence
  pest or weed control at 31 g/ha: 80%
[2]; [19]
  pest or weed control at 125 g/ha: 80%
[3]; 31 g ai/ha, Preemergence
  pest or weed control at 31 g/ha: 90%
[3]; [19]
  pest or weed control at 125 g/ha: 100%
[4]; 31 g ai/ha, Preemergence
  pest or weed control at 31 g/ha: 0%
[4]; [19]
  pest or weed control at 125 g/ha: 0%
[5]; 31 g ai/ha, Preemergence
  pest or weed control at 31 g/ha: 0%
[5]; [19]
  pest or weed control at 125 g/ha: 0%
[6]; 31 g ai/ha, Preemergence
  pest or weed control at 31 g/ha: 0%
[6]; [19]
  pest or weed control at 125 g/ha: 30%
[7]; 125 g ai/ha, postemergence, visual injury on 0 to 100 scale (0 no effect, 100 complete control), approx. 10 d, read-out: Galium plant response rating
  pest or weed control at 125 g/ha: 20%
[7]; Postemergence, 31 g ai/ha, visual injury after approx. 10 d, 0 to 100 scale, 0 no effect, 100 complete control, read-out: Plant response rating, Galium
  pest or weed control at 31 g/ha: 0%
Kochia (Kochia scoparia) [8]; 125 g ai/ha, postemergence, visual injury on 0 to 100 scale (0 no effect, 100 complete control), approx. 10 d, read-out: Kochia plant response rating
  pest or weed control at 125 g/ha: 0%
Kochia (Kochia scoparia) [8]; Postemergence, 31 g ai/ha, visual injury after approx. 10 d, 0 to 100 scale, 0 no effect, 100 complete control, read-out: Plant response rating, Kochia
  pest or weed control at 31 g/ha: 0%
[9]; 125 g ai/ha, postemergence, visual injury on 0 to 100 scale (0 no effect, 100 complete control), approx. 10 d, read-out: Barnyardgrass plant response rating
  pest or weed control at 125 g/ha: 90%
[9]; Postemergence, 31 g ai/ha, visual injury after approx. 10 d, 0 to 100 scale, 0 no effect, 100 complete control, read-out: Plant response rating, Barnyardgrass
  pest or weed control at 31 g/ha: 30%
[10]; 125 g ai/ha, postemergence, visual injury on 0 to 100 scale (0 no effect, 100 complete control), approx. 10 d, read-out: Blackgrass plant response rating
  pest or weed control at 125 g/ha: 0%
[10]; Postemergence, 31 g ai/ha, visual injury after approx. 10 d, 0 to 100 scale, 0 no effect, 100 complete control, read-out: Plant response rating, Blackgrass
  pest or weed control at 31 g/ha: 0%
Corn (Zea mays); 125 g ai/ha, postemergence, visual injury on 0 to 100 scale (0 no effect, 100 complete control), approx. 10 d, read-out: Corn plant response rating
  plant injury at 125 g/ha: 30%
Corn (Zea mays); Postemergence, 31 g ai/ha, visual injury after approx. 10 d, 0 to 100 scale, 0 no effect, 100 complete control
  Corn plant response rating (crop injury, 0 = no effect, 100 = complete kill) at 31 g/ha: 0%
[11]; 125 g ai/ha, postemergence, visual injury on 0 to 100 scale (0 no effect, 100 complete control), approx. 10 d, read-out: Foxtail, Giant plant response rating
  pest or weed control at 125 g/ha: 60%
[11]; Postemergence, 31 g ai/ha, visual injury after approx. 10 d, 0 to 100 scale, 0 no effect, 100 complete control, read-out: Plant response rating, Foxtail, Giant
  pest or weed control at 31 g/ha: 10%
[12]; 125 g ai/ha, postemergence, visual injury on 0 to 100 scale (0 no effect, 100 complete control), approx. 10 d, read-out: Pigweed plant response rating
  pest or weed control at 125 g/ha: 0%
[12]; Postemergence, 31 g ai/ha, visual injury after approx. 10 d, 0 to 100 scale, 0 no effect, 100 complete control, read-out: Plant response rating, Pigweed
  pest or weed control at 31 g/ha: 0%
[13]; 125 g ai/ha, postemergence, visual injury on 0 to 100 scale (0 no effect, 100 complete control), approx. 10 d, read-out: Ragweed plant response rating
  pest or weed control at 125 g/ha: 0%
[13]; Postemergence, 31 g ai/ha, visual injury after approx. 10 d, 0 to 100 scale, 0 no effect, 100 complete control, read-out: Plant response rating, Ragweed
  pest or weed control at 31 g/ha: 0%
[14]; 125 g ai/ha, postemergence, visual injury on 0 to 100 scale (0 no effect, 100 complete control), approx. 10 d, read-out: Ryegrass, Italian plant response rating
  pest or weed control at 125 g/ha: 0%
[14]; Postemergence, 31 g ai/ha, visual injury after approx. 10 d, 0 to 100 scale, 0 no effect, 100 complete control, read-out: Plant response rating, Ryegrass, Italian
  pest or weed control at 31 g/ha: 0%
[15]; 125 g ai/ha, postemergence, visual injury on 0 to 100 scale (0 no effect, 100 complete control), approx. 10 d, read-out: Wheat plant response rating
  plant injury at 125 g/ha: 20%
[15]; Postemergence, 31 g ai/ha, visual injury after approx. 10 d, 0 to 100 scale, 0 no effect, 100 complete control, read-out: Plant response rating, Wheat
  plant injury at 31 g/ha: 0%
[16]
  pest or weed control at 250 g/ha: 45%
[17]
  pest or weed control at 250 g/ha: 40%
Rice (Oryra sativa)
  pest or weed control at 250 g/ha: 0%
[18]
  pest or weed control at 250 g/ha: 0%
